Results from patent publication US5215972A, “Steroids” (Hoffmann-La Roche Inc., priority 1989, dated 1993).
Structures can show the parent of a compound that is named as a salt. Where two headings read alike, the source gives them in different places.

Assays:
[1] = test system: intestinal resorption of cholesterol; assay: Inhibition of intestinal resorption of [26-^14 C]-cholesterol (CHORES) in squirrel monkeys; assay type: in vivo; settings: Primates, po, 60 h, 100 μmol/kg p.o., percent of control values determined prior to medication (pre-period), feces collected 2.5 days
Description: Squirrel monkeys are orally administered the substances to be investigated together with a test feed containing a protein, starch, triolein and [26-^14 C]-cholesterol. Thereafter, the feces is collected for 2.5 days. The difference between the administered and the collected radioactive cholesterol determined in the feces is taken as the measurement of resorbed cholesterol. The cholesterol resorption (CHORES) is expressed in percentages of the control values determined prior to the medication.
(§1) The results which have been obtained with some representative products in accordance with the invention are reproduced in Table I. For each of the compounds indicated in Table I the cholesterol resorption, determined at a dosage of 100 μmol/kg p.o., is given in percentages of the control values determined prior to the medication (pre-period). Moreover, the Table contains data concerning the acute toxicity of the compounds investigated (LD50 in mg/kg in the case of single oral or intravenous administration to mice).

[2] = Acute toxicity, single oral or intravenous administration to mice; settings: mouse, in vivo
Description: as §1

[3] = i.v., single intravenous administration to mice, read-out: LD50 i.v.
[4] = p.o., single oral administration to mice, read-out: LD50 p.o.

| SMILES | response vs control in vivo at 100 µmol/kg [1] [%] | LD50 [2, 3] [mg/kg] | LD50 [2, 4] [mg/kg] |
| --- | --- | --- | --- |
| CC[C@H](CC[C@@H](C)[C@H]1CC[C@H]2[C@@H]3CC[C@H]4C[C@@H](OCCOCCOP(=O)([O-])OCC[N+](C)(C)C)CC[C@]4(C)[C@H]3CC[C@]12C)C(C)C [Example 4a, O-[hydroxy-[2-[2-(3β-stigmastanyloxy)ethoxy]ethoxy]phosphinyl]cholinehydroxide internal salt] | 30 | – | – |
| CC(C)CCC[C@@H](C)[C@H]1CC[C@H]2[C@@H]3CC=C4C[C@@H](OCCOP(=O)([O-])OCC[N+](C)(C)C)CC[C@]4(C)[C@H]3CC[C@]12C [Example 2q, O-[[2-(cholest-5-en-3β-yloxy)ethoxy]hydroxyphosphinyl]choline hydroxide internal salt] | 16 | 250 | 4000 |
| CC[C@H](/C=C/[C@@H](C)[C@H]1CC[C@H]2[C@@H]3CC=C4C[C@@H](OCCOP(=O)([O-])OCC[N+](C)(C)C)CC[C@]4(C)[C@H]3CC[C@]12C)C(C)C [Example 2r, O-[hydroxy-[2-(stigmasta-5,22-dien-3β-yloxy)ethoxy]phosphinyl]cholinehydroxide internal salt] | 37 | 500 | 4000 |
| CC[C@H](CC[C@@H](C)[C@H]1CC[C@H]2[C@@H]3CC[C@H]4C[C@@H](OC(=O)OCCOP(=O)([O-])OCC[N+](C)(C)C)CC[C@]4(C)[C@H]3CC[C@]12C)C(C)C [Example 2a, O-[[2-[[(5α-stigmastan-3β-yloxy)carbonyl]oxy]ethoxy]hydroxyphosphinyl]choline hydroxide internal salt] | 38 | 250 | 4000 |
| CC[C@H](CC[C@@H](C)[C@H]1CC[C@H]2[C@@H]3CC[C@H]4C[C@@H](OC(=O)NCCOP(=O)([O-])OCC[n+]5ccccc5)CC[C@]4(C)[C@H]3CC[C@]12C)C(C)C [Example 6, 1-[2-[[hydroxy-[2-[1-(5α-stigmastan-3β-yloxy)-formamido]ethoxy]phosphinyl]oxy]ethyl]pyridinum hydroxide internal salt] | 31 | – | 4000 |
| CC[C@H](CC[C@@H](C)[C@H]1CC[C@H]2[C@@H]3CC[C@H]4C[C@@H](OC(=O)CCCOP(=O)([O-])OCC[N+](C)(C)C)CC[C@]4(C)[C@H]3CC[C@]12C)C(C)C [Example 2k, O-[hydroxy-[3-[(3β-stigmastanyloxy)carbonyl]propoxy]phosphinyl]choline hydroxide internal salt] | 39 | 250 | 4000 |
| CC[C@H](/C=C/[C@@H](C)[C@H]1CC[C@H]2[C@@H]3CC=C4C[C@@H](OC(=O)NCCOP(=O)([O-])OCC[N+](C)(C)C)CC[C@]4(C)[C@H]3CC[C@]12C)C(C)C [Example 7a, O-[hydroxy-[2-[1-[(E)-stigmasta-5,22-dien-3β-yloxy]formamido]ethoxy]phosphinyl]choline hydroxide internal salt] | 35 | – | – |
| CC[C@H](CC[C@@H](C)[C@H]1CC[C@H]2[C@@H]3CC[C@H]4C[C@@H](OC(=O)NCCOP(=O)([O-])OCC[N+](C)(C)C)CC[C@]4(C)[C@H]3CC[C@]12C)C(C)C [Example 5, O-[hydroxy-[2-[1-(5α-stigmastan-3β-yloxy)formamido]ethoxy]phosphinyl]choline hydroxide internal salt] | 40 | – | – |
| CC[C@H](CC[C@@H](C)[C@H]1CC[C@H]2[C@@H]3CC=C4C[C@@H](OC(=O)OCCOP(=O)([O-])OCC[N+](C)(C)C)CC[C@]4(C)[C@H]3CC[C@]12C)C(C)C [Example 16, O-[hydroxy-[2-[[(stigmast-5-en-3β-yloxy)carbonyl]oxy]ethoxy]-phosphinyl]choline hydroxide internal salt] | 40 | – | – |
